Values of other authors, collected in patent US20040048919A1, “Compositions and methods for reduction of inflammatory symptoms and/or biomarkers in female subjects” (priority 2002, published 2004).

Details: 3.6 gm DHA per day (50x average dietary intake)

## CC/C=C\C/C=C\C/C=C\C/C=C\C/C=C\C/C=C\CCC(=O)O [DHA, all-cis 4,7, 10, 13, 16, 19-docosahexaenoic acid]
  toxicities on ingestion by humans: no apparent toxicities
